In ChEMBL document CHEMBL1201862, “PubChem BioAssay data set” (2004):
Activity calls are given as the source filed them.

Experiments:
Type in all cases: functional
[1] = molecular target: T1, High affinity choline transporter 1 (Homo sapiens, UniProt Q9GZV3); assay: human choline transporter blockers, potency – cell-based, 5-point CRC, membrane potential dye, dose response (AID 504840)
T1 sequence (Q9GZV3 whole entry): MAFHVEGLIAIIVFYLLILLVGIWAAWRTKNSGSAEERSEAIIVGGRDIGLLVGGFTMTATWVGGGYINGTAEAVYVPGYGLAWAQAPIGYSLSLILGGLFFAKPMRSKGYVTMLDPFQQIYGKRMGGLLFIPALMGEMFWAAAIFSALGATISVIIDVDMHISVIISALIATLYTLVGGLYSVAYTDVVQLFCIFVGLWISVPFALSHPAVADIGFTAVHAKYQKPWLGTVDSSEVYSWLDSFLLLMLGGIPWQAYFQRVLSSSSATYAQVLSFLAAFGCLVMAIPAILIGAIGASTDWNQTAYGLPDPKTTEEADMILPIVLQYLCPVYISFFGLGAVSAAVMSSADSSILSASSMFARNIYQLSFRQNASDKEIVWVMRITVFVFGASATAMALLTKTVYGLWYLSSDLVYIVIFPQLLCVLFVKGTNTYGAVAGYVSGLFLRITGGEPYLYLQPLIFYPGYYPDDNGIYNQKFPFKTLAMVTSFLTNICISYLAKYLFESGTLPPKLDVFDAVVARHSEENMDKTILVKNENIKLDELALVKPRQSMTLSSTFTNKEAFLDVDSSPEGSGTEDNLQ

[2] = molecular target: T1, High affinity choline transporter 1; assay: human choline transporter blockers, potency – cell-based, 10-point CRC, membrane potential dye, dose response (AID 588401);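 also: membrane potential dye fluorescence of choline-evoked depolarization via CHT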
[3] = molecular target: Neuropeptides B/W receptor type 1 (Homo sapiens, UniProt P48145); assay: human NPBW1 receptor blockade, IC50 – cell-based, fluorescence, dose response, set 6, late-stage follow-up (AID 588583)
[4] = molecular target: Melanin-concentrating hormone receptor 1 (Homo sapiens, UniProt Q99705); assay: Late-stage fluorescence-based counterscreen for antagonists of the G-protein coupled receptor 7 (GPR7): cell-based dose response assay to identify antagonists of the melanin-concentrating hormone receptor 1 (MCHR1) Set 6.
CHO-K1 = assay: (§1) Counterscreen for antagonists of the orexin 1 receptor (OX1R; HCRTR1): Homogeneous time resolved fluorescence (HTRF)-based cell-based dose response assay to identify antagonists of the parental CHO-K1 cell line. [Related pubchem assays (depositor defined):AID434989, AID435008, AID463079, AID485270, AID492963, AID492964, AID492965, AID493232, AID504699, AID504701]; details: Cricetulus griseus
[5] = as §1, with “Fluorescence-based” for “Homogeneous time resolved fluorescence (HTRF)-based”, “cell-based high throughput” for “cell-based”, “CHO” for “CHO-K1”
Orexin receptor type 2 [6] = molecular target: T2, Orexin receptor type 2 (Homo sapiens, UniProt O43614); assay: Counterscreen assay for antagonists of the orexin 1 receptor (OX1R; HCRTR1): Homogeneous Time Resolved Fluorescence (HTRF)-based cell-based dose response assay for antagonists of the orexin 2 receptor (OX2R; HCRTR2), run by assay provider.
T2 sequence (O43614 whole entry): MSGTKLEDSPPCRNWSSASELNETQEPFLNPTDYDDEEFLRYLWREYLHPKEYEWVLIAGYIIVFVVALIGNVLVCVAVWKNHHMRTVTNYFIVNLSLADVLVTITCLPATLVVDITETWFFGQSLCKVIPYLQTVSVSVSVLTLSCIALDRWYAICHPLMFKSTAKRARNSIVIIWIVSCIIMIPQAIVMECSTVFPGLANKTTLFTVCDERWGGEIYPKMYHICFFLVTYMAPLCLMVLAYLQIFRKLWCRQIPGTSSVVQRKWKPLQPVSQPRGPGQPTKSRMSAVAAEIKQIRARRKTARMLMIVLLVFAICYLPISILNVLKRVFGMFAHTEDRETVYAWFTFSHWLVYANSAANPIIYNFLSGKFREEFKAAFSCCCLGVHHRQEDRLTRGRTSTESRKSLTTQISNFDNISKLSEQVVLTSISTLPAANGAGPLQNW

[7] = molecular target: T3, Orexin/Hypocretin receptor type 1 (Homo sapiens, UniProt O43613); assay: Homogeneous Time Resolved Fluorescence (HTRF)-based cell-based high throughput dose response assay for antagonists of the orexin 1 receptor (OX1R; HCRTR1). [Related pubchem assays (depositor defined):AID434989, AID435008, AID463079, AID485270, AID492963, AID492964, AID492965, AID493232, AID504717, AID504718]
T3 sequence (O43613 whole entry): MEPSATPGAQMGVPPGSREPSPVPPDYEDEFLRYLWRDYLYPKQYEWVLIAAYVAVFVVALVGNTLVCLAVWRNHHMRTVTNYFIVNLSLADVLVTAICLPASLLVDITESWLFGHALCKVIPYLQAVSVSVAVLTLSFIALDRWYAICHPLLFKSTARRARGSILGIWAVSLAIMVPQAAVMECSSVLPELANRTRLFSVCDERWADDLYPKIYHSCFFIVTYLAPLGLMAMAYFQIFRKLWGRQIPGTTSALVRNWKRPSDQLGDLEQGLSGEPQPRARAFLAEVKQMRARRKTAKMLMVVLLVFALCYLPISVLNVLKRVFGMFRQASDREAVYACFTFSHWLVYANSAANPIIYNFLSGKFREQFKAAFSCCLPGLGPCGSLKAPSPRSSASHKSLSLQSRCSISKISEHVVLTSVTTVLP

[8] = molecular target: T3, Orexin/Hypocretin receptor type 1; assay: Fluorescence-based cell-based high throughput dose response assay for antagonists of the orexin 1 receptor (OX1R; HCRTR1). [Related pubchem assays (depositor defined):AID434989, AID435008, AID463079, AID485270, AID492963, AID492964, AID492965, AID493232, AID504717, AID504718]
[9] = A Cell Based Secondary Assay To Explore Cytotoxicity of Compounds that Sensitize Mycobacterium Tuberculosis to Beta-Lactam Antibiotics.
Orexin receptor type 2 [10] = molecular target: T2, Orexin receptor type 2; assay: Counterscreen assay for antagonists of the orexin 1 receptor (OX1R; HCRTR1): Fluorescence-based cell-based dose response assay for antagonists of the orexin 2 receptor (OX2R; HCRTR2), run by assay provider.
[11] = viability loss in THP-1 monocytes – THP-1 cells, cytotoxicity control for Vif-APOBEC3G degradation inhibitor project, dose response (AID 1117359); details: THP-1

Sequence of Melanin-concentrating hormone receptor 1 (Q99705 whole entry): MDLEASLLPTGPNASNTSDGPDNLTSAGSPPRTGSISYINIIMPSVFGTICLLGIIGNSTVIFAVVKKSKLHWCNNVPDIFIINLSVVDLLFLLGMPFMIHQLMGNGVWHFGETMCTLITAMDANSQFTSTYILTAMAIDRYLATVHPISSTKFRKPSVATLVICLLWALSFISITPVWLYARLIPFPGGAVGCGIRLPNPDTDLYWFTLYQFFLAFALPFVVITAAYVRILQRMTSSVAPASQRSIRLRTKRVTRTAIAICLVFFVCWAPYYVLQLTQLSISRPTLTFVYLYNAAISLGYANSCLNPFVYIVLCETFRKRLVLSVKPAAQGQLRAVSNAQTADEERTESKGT
Sequence of Neuropeptides B/W receptor type 1 (P48145 whole entry): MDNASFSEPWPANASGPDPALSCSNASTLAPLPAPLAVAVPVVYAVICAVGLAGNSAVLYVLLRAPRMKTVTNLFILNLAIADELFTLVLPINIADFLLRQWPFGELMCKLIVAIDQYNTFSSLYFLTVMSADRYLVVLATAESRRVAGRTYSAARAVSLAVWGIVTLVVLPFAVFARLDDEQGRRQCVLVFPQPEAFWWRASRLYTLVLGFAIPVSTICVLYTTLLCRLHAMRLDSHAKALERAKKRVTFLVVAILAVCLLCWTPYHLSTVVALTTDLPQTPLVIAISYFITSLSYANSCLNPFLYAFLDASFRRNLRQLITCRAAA

For `C/C(=N\N=C(N)N)c1ccc(Cl)cc1`, the IC50 [1] was 7.39 µM (active) and the IC50 [2] was 4.01 µM (active).

With `O=c1c(-c2ccccc2F)c(Br)cnn1Cc1cccc2ccccc12` the IC50 [3] was 3.58 µM (active) and the IC50 [4] was 3.58 µM (active).

With `CCOc1ccc(C(C#N)c2c(Br)cnn(Cc3cccc4ccccc34)c2=O)cc1` (stereo not given) the IC50 [3] was 0.4 µM (active) and the IC50 [4] was 0.4 µM (active).

For `O=C(Nc1cccc(S(=O)(=O)NCc2ccco2)c1)c1cc(-c2ccc(F)cc2)nc2ccccc12`, the IC50 (CHO-K1) was > 66.2 µM (inactive), the IC50 [5] was > 49.8 µM (inactive) and the IC50 (Orexin receptor type 2 [6]) was > 50 µM (inactive). For the same molecule, the IC50 [7] was 6.13 µM (active), the IC50 [8] was 17.2 µM (inactive) and the CC50 [9] was 2.38 µM (active). For the same molecule, the IC50 (Orexin receptor type 2 [10]) was 9.9 µM (active).

In the case of `Cc1c2ccccc2nc2c(F)c(N(C)C)c(F)c(F)c12`, the IC50 (CHO-K1) is reported as > 66.2 µM (inactive), the IC50 [5] is reported as 19.7 µM (inactive) and the IC50 (Orexin receptor type 2 [6]) is reported as > 50 µM (inactive). The IC50 [7] was 1.01 µM (active), the IC50 [8] was 2.19 µM (active) and the CC50 [11] was > 40 µM (active). For the same molecule, the IC50 (Orexin receptor type 2 [10]) was 32.2 µM (inactive).
